In US20260327224A1, “SUBSTITUTED PYRIDOTRIAZOLE COMPOUND, AND PREPARATION METHOD THEREFOR AND USE THEREOF” (ORIGIANT PHARMACEUTICAL CO., LTD., priority 2023, published 2026):

tested on: HT-29 cells (colon cancer cells); test: In vitro assay for protection of HT-29 cells from necroptosis (TNFα/Smac mimetic/Z-VAD-FMK, CCK-8); type: cell-based; settings: Homo sapiens, Protective Activity Against Necroptosis, TNFα/Smac mimetic/Z-VAD-FMK induced, 24 h
Source text: Z′=1−3(SDmin+SDmax)/(AVEmax−AVEmin) • wherein: • Min is the positive control Data, and Max is the negative control DMSO Data. • SD is the standard deviation, and AVE is the average. In Vitro Assay for Protection of HT-29 Cells from Necroptosis:
1) Experimental Materials
DMEM medium was purchased from Gibco; penicillin-streptomycin was purchased from Hyclone; TNFα was purchased from Peprotech; Smac mimetic and Z-VAD-FMK were purchased from Selleck; and CCK-8 was purchased from Medchem Express.
HT-29 cells (colon cancer cells) were cultured in DMEM+10% FBS+penicillin/streptomycin. For the experiment, HT-29 cells in the logarithmic phase were collected and seeded into 96-well plates at a specific density (typically 8×10^3 cells/well for adherent cells). The cells were cultured overnight in an incubator at 37° C. with 5% CO2. On the following day, the test compound was diluted with culture medium to the corresponding concentrations and added into the 96-well plate, with 3 replicate wells for each sample. A solvent control group and a blank control group containing only culture medium were set simultaneously. The spiked cells were induced with a combination of TNFα/Smac mimetic/Z-VAD-FMK for 24 h. Subsequently, 10 μL of CCK8 solution was added to each well, and the cells were incubated in an incubator for 1-3 h. Absorbance was measured at […] using a microplate reader, and the cell necrosis protection rate of the drug was calculated using the following formula:
Cell necrosis protection rate=[(X−C0)/(C−C0)]×100% • where C, C0, and X represent the average absorbance values of the solvent control group, the blank control group, and the drug treatment group, respectively. Finally, a cell viability curve was fitted using Graphpad Prism 5.0 software, and the EC50 value of the test compound for inhibiting necroptosis was calculated.

Compound	EC50 [nM]
Cn1cc(C(=O)N[C@@H](CF)c2ccc(F)cc2)c2cc(-c3ccn4nc(NC(=O)C5CC5F)nc4c3)ccc21 (stereo partly shown) [Compound 113]	1 to 10
Cn1cc(C(=O)N[C@H]2CCCc3cc(F)ccc32)c2cc(-c3ccn4nc(NC(=O)[C@@H]5CCCO5)nc4c3)ccc21 [Compound 139]	1 to 10
COCCOCCOCC(=O)Nc1nc2cc(-c3ccc4c(c3)c(C(=O)N[C@@H](C)c3ccc(F)cc3)cn4C)ccn2n1 [Compound 25]	< 1
CC(C(=O)Nc1nn(C)c2ccc(-c3ccn4nc(NC(=O)CN(C)C)nc4c3)cc12)c1ccc(F)cc1 (stereo not shown) [Compound 180]	1000 to 10000
CC[C@H](NC(=O)c1cn(C)c2ccc(-c3ccn4nc(NC(=O)CN5CCOCC5)nc4c3)cc12)c1ccc(F)cc1 [Compound 197]	< 1
C[C@H](NC(=O)c1cn(C)c2ccc(-c3ccn4nc(NC(=O)CN5CCCOCC5)nc4c3)cc12)c1ccc(F)cc1 [Compound 30]	< 1
CN(C(=O)c1cn(C)c2ccc(-c3ccn4nc(NC(=O)C5CC5)nc4c3)cc12)[C@H]1CCc2cc(F)ccc21 [Compound 205]	1 to 10
C[C@H](NC(=O)c1cn(C)c2ccc(-c3ccn4nc(NC(=O)N5CCOCC5)nc4c3)cc12)c1ccc(F)cc1 [Compound 116]	< 1
COC(C)C(=O)Nc1nc2cc(-c3ccc4c(c3)c(C(=O)N[C@@H](CF)c3ccc(F)cc3)cn4C)ccn2n1 (stereo partly shown) [Compound 112]	< 1
Cn1cc(C(=O)Nc2nc3cc(-c4ccc5c(c4)c(C(=O)N4N=CCC4c4ccc(F)cc4)cn5C)ccn3n2)cn1 (stereo not shown) [Compound 171]	1 to 10
CC(C)NCC(=O)Nc1nc2cc(-c3ccc4c(c3)c(C(=O)N[C@@H](C)c3ccc(F)cc3)cn4C)ccn2n1 [Compound 67]	< 1
CN(C)CC(=O)Nc1nc2cc(-c3ccc4c(c3)c(C(=O)N[C@@H](CF)c3ccc(F)cc3)cn4C)ccn2n1 [Compound 101]	< 1
C[C@H](NC(=O)c1cn(C)c2ccc(-c3ccn4nc(NC(=O)CN5CCC(C#N)CC5)nc4c3)cc12)c1ccc(F)cc1 [Compound 23]	< 1
Cn1cc(C(=O)N2CC(F)CC2c2ccc(F)cc2)c2cc(-c3ccn4nc(NC(=O)C5CCCO5)nc4c3)ccc21 (stereo not shown) [Compound 157]	< 1
C[C@H](NC(=O)c1cn(C)c2ccc(-c3ccn4nc(NC(=O)CN5C[C@H]6C[C@@H]5CO6)nc4c3)cc12)c1ccc(F)cc1 [Compound 39]	< 1
C[C@H](NC(=O)c1cn(C)c2ccc(-c3ccn4nc(NC(=O)CN5CC[C@H](O)C5)nc4c3)cc12)c1ccc(F)cc1 [Compound 41]	< 1
Cn1cc(C(=O)N[C@@H](CF)c2ccc(F)cc2)c2cc(-c3ccn4nc(NC(=O)C#N)nc4c3)ccc21 [Compound 102]	< 1
C[C@H](NC(=O)c1cn(C)c2ccc(-c3ccn4nc(NC(=O)CN5CCOCC5)nc4c3)cc12)c1ccc(Cl)cc1 [Compound 83]	< 1
Cn1cc(C(=O)N2N=CCC2c2ccc(F)cc2)c2cc(-c3ccn4nc(NC(=O)C5CCOC5)nc4c3)ccc21 (stereo not shown) [Compound 169]	< 1
Cn1cc(C(=O)Nc2nc3cc(-c4ccc5c(c4)c(C(=O)N[C@@H](CF)c4cccc(F)c4)cn5C)ccn3n2)cn1 [Compound 155]	< 1
C[C@H](NC(=O)c1cn(C)c2ccc(-c3ccn4nc(NC(=O)c5cnn(C)c5)nc4c3)cc12)c1cccc(F)c1 [Compound 120]	< 1
Cn1cc(C(=O)N2CCC[C@H]2c2ccc(F)cc2)c2cc(-c3ccn4nc(NC(=O)C5CCOC5)nc4c3)ccc21 (stereo partly shown) [Compound 186]	< 1
C[C@H](NC(=O)c1cn(C)c2ccc(-c3ccn4nc(NC(=O)CN5CC[C@H](F)C5)nc4c3)cc12)c1ccc(F)cc1 [Compound 21]	< 1
C[C@H](NC(=O)c1cn(C)c2ccc(-c3ccn4nc(NC(=O)C(=O)N5CCOCC5)nc4c3)cc12)c1ccc(F)cc1 [Compound 9]	< 1
C[C@H](NC(=O)c1cn(C)c2ccc(-c3ccn4nc(NC(=O)CN5CCC(O)CC5)nc4c3)cc12)c1ccc(F)cc1 [Compound 6]	< 1
